BindingDB's records for doi:10.1021/jm00161a009 (1986)

Biological target: T1, Carnitine palmitoyl transferase I liver isoform (Sus scrofa, UniProt Q9MYX2)
T1 sequence (Q9MYX2 whole entry): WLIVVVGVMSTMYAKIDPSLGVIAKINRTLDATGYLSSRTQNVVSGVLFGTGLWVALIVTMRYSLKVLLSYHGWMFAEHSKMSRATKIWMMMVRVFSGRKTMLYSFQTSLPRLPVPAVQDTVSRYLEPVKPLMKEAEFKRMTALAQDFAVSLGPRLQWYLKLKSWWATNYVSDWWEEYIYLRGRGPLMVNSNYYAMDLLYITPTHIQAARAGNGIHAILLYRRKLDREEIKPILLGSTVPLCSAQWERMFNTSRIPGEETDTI
Assay: ChEBML_44012
Experimental: Compound was tested for its inhibitory activity against carnitine palmitoyl transferase-A (CPT-A)

SMILES | IC50 [nM]
CCCCCCCCCCC1(C(=O)OC)CO1 (configuration not stated) [2-Decyl-oxirane-2-carboxylic acid methyl ester] | 680
CCCCCCCCCCCCC1(C(=O)OC)CO1 (configuration not stated) [2-Dodecyl-oxirane-2-carboxylic acid methyl ester] | 600
CCCCCCC1(C(=O)OC)CO1 (configuration not stated) [2-Hexyl-oxirane-2-carboxylic acid methyl ester] | 136000
CCCCCCCCCCCC1(C(=O)OC)CO1 (configuration not stated) [2-Undecyl-oxirane-2-carboxylic acid methyl ester] | 1160
CCCCCCCCCCCCCCC1(C(=O)O)CO1 (stereo not drawn) [(+/-)2-Tetradecyl-oxirane-2-carboxylic acid] | 900

These reach a lower IC50. Values come first.

IC50 [nM] | SMILES
500 | CCCCCCCCCCCCCC1(C(=O)OC)CO1 (configuration not stated) [2-Tridecyl-oxirane-2-carboxylic acid methyl ester]
300 | CCCCCCCCCCCCCCC1(C(=O)OC)CO1 (racemic) [2-Tetradecyl-oxirane-2-carboxylic acid methyl ester]
